How the values were obtained:
TGF-beta receptor type-1 = target: T1, TGF-beta receptor type-1 (Homo sapiens, UniProt P36897); assay: Inhibition of human ALK5 in presence of (33P)gamma ATP
T1 sequence (P36897 whole entry): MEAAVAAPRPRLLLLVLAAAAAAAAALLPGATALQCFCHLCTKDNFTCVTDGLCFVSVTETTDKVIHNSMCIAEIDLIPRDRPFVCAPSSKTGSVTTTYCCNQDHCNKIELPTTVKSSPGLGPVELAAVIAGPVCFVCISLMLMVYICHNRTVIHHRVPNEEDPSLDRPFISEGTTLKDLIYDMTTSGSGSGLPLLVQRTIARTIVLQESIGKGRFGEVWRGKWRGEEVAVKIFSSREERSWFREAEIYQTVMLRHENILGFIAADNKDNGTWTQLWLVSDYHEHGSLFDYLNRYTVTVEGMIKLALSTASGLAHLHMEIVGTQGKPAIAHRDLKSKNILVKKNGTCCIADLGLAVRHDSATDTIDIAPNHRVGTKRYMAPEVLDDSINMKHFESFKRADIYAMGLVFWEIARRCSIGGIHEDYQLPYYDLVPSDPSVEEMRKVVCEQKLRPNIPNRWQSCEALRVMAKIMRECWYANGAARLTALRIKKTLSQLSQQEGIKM

Danio rerio = assay: Inhibition of BMPR in zebra fish embryo assessed as dorsalization administered 3 hr post fertilization
[1] = target: Vascular endothelial growth factor receptor 2 (Homo sapiens, UniProt P35968); assay: Inhibition of human KDR in presence of (33P)gamma ATP
[2] = Induction of cardiogenesis in human embryonic stem cells by DAPI staining based immunofluorescence method relative to control; type: functional, Embryonic stem cell
[3] = Induction of cardiogenesis in human embryonic stem cells assessed as as enrichment of pacemaker like cardiomyocytes (reference value: 21%); type: functional, Embryonic stem cell
[4] = Induction of cardiogenesis in mouse embryonic stem cells assessed as enrichment of atrial like cardiomyocytes by patch clamp technique (reference value: 7%); type: functional, Embryonic stem cell
[5] = Induction of cardiogenesis in mouse embryonic stem cells assessed as enrichment of pacemaker like cardiomyocytes by patch clamp technique (reference value: 7%); type: functional, Embryonic stem cell
[6] = Induction of cardiogenesis in mouse CGR8 cells assessed as cardiac troponin positive cells measured on day 5 +10+2 EB-derived cells by flow cytometry analysis (reference value: 11%); type: functional
[7] = Suppression of cardiogenesis in mouse embryonic stem cells assessed as ventricular like cardiomyocytes by patch clamp technique (reference value: 86%); type: functional, Embryonic stem cell
Activin receptor type-1 = target: T2, Activin receptor type-1 (Homo sapiens, UniProt Q04771); assay: Inhibition of human ALK2 in presence of (33P)gamma ATP
T2 sequence (Q04771 whole entry): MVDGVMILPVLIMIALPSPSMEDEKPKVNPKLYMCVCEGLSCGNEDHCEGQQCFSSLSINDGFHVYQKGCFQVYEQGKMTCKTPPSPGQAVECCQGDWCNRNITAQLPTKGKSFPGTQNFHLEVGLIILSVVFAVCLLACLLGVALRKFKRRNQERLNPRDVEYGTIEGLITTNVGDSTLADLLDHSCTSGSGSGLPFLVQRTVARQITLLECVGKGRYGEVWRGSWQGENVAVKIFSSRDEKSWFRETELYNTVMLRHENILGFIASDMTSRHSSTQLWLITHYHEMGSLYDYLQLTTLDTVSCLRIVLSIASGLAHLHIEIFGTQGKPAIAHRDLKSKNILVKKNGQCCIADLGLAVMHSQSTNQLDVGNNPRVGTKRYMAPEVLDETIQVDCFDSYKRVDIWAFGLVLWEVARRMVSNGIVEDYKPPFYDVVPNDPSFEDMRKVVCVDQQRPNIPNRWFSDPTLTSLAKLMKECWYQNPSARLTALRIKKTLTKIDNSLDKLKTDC

Chain of Vascular endothelial growth factor receptor 2 (P35968 whole entry): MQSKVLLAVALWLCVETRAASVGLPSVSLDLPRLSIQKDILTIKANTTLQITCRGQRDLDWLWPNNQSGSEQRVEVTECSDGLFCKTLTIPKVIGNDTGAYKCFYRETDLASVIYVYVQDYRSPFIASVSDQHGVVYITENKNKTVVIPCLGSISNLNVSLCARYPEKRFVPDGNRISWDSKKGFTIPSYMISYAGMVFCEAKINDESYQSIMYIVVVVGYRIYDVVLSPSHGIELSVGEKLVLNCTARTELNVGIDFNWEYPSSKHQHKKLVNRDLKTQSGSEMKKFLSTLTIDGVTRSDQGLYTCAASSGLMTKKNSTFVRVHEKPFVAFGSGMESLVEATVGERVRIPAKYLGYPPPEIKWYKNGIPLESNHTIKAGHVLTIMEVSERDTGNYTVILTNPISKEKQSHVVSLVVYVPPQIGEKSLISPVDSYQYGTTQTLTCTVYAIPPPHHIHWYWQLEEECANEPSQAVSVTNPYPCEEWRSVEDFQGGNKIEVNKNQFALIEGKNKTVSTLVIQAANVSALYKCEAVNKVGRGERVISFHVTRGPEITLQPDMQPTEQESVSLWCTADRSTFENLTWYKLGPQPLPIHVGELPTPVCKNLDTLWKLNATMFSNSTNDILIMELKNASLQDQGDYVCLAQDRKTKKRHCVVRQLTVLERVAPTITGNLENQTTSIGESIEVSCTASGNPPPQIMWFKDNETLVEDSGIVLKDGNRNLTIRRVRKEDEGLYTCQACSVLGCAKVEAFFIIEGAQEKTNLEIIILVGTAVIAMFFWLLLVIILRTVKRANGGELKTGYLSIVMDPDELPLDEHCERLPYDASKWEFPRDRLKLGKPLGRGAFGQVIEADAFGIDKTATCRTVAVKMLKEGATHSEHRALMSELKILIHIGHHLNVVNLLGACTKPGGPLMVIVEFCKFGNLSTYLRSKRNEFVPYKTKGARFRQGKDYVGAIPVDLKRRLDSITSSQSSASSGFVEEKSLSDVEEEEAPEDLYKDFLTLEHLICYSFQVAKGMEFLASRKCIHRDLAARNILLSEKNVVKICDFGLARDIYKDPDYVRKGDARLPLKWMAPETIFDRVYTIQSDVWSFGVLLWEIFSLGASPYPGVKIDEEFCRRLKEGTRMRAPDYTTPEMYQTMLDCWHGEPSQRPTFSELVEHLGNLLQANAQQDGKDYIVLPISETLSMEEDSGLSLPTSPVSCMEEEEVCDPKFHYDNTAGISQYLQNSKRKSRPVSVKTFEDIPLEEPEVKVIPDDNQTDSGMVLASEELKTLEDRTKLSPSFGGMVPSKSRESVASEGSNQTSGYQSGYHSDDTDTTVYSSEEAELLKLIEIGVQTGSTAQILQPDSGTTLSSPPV

## c1cc(-c2cnn3cc(-c4ccc(OCCN5CCCCC5)cc4)cnc23)ccn1 [DORSOMORPHIN]
TGF-beta receptor type-1
  IC50: 10000 nM
Danio rerio
  EC100: 2.5 µM
[1]
  IC50: 220 nM

## C[S+]([O-])c1ccc(-c2nc(-c3ccc(F)cc3)c(-c3ccncc3)[nH]2)cc1 (configuration not stated) [SB-203580]
[2]
  fold change (FC): 2.5

## COc1cc2ncnc(Nc3cccc(Cl)c3)c2cc1OC [TYRPHOSTIN AG-1478]
[3]
  Activity: 52%

## CCn1c(=O)[nH]c2ccccc21
[4]
  Activity: 21%
[5]
  Activity: 58%
[6]
  Activity: 59%
[7]
  Activity: 21%

## CC(C)Oc1ccc(-c2cnc3c(-c4ccnc5ccccc45)cnn3c2)cc1
Danio rerio
  EC100: 0.2 µM
Activin receptor type-1
  IC50: 100 nM

## c1ccc2c(-c3cnn4cc(-c5ccc(N6CCNCC6)cc5)cnc34)ccnc2c1
Danio rerio
  EC100: 3 µM
